# From patent US4816490A, “Novel therapeutic use of a derivative of indane dione and the pharmaceutical compositions intended for this use” (priority 1987, dated 1989)
# How the values were obtained:
# [1] = test system: hyperlipidaemia induced by TRITON WR 1339; test: Hyperlipidaemia induced by TRITON WR 1339 in the Wistar rat; type: in vivo; conditions: for Dose dependence of hypolipaemiant activity: 250 and 500 mg/kg
# Experimental: Feeding by standard Regimen UAR A04
# Drinking water ad libitum
# 6 animals per dose in a cage in MAKROLON of 60×40 cm filled with shavings of wood.
# 10 mn after: administration of the test compound
# 6 hours after: 1st sampling of the blood at the retro-orbital sinus
# Total cholesterol by the colorimetric method of RICHMOND
# Cholesterol in HDL by the colorimetric method of RICHMOND after precipitation by CONCANAVALIN A
# Cholesterol in LDL by the colorimetric method of RICHMOND after precipitation by CONCANAVALIN A
# Total lipids by the Zollner's sulphophosphovanillic method
# Triglycerids by the BUCOLO's enzymatic method.
# [2] = test system: male and female mice of Swiss strain; test: Acute toxicity after single intraperitoneal administration; type: in vivo; conditions: IP
# Description: Male and female mice of Swiss strain weighing from 22 to 25 g of body weight were free of pathogen specific organisms (EOPS), stemming from breeding CERJ (53860 LE GENEST (France) and acclimated for at least 8 days in the animalry of the firm.
# Except where stipulated to the contrary, in the tables giving the results, 10 animals of the same sex for each dose were housed in cages of MAKROLON (Safi) of 40 cm by 25 cm filled with shaving of wood. Standard feeding for rats and mice, tablets UAR and tap water ad libitum.
# The compounds were administered without previous fasting either orally (gastric tubing using a metallic oesophageous sonde) at a rate of 0.5 ml or 1 ml per 20 g of body weight of an aqueous suspension of the test compound in a 3% solution of arabic gum, or intraperitoneally at a rate of 0.5 ml or 1 ml per 20 g of body weight of the test compound suspended in an isotonic saline solution containing 3% of arabic gum.
# For 6 days after the single administration and then every day for 15 days.
# When necessary, the mean lethal doses (LD 50) were calculated by the method of Behrens and Karber (BK) and Miller and Tainter (MT). The latter allowing to supply with, for the threshold of probability P=0.05 a limit of confidence for the LD 50. Further calculated were the LDo i.e. DMT=maximal doses always tolerated and the LD100 i.e. DMM=minimal doses always lethal.
# [3] = French patent 2,382,424; cited from earlier work
# [4] = test system: atheromatous deposits of the aorta, Wistar rats; test: Macroscopic examination of aorta atheroma in rats on atheromatogenous diet; type: in vivo, rat
# Description: (§1) The method utilized for the test was that, slightly altered of Aubert D. Feraud J. C., Lacaze B., Pepino., Ponak E. et Podesta M. as described in Atherosclerosis, Vol. 20 (1974), p. 263-280 (Experimental Atherogenesis in the Wistar Rat).
# (§2) Diet: standard tablets UAE AO 3 enriched in cholesterol (0.5%) and in cholic acid (0.5).
# After the studies, all the animals were sacrificed by subtotal puncture of the blood in the abdominal aorta after anesthesia by intravenous sodium Pentobarbital. The hearts, livers, aortas on which the score of atheroma was determined were taken. For this purpose, the aortas were longitudinally cut, then spread to allow a whole insight of the endothelial coating from the aortic valves until the branching of the coeliac stem (lower portion of the thoracic aorta).
# Aorta was from an anatomic point of view divided into two parts:
# Zone 1: aortic valves-first intercostal arters
# Zone 2: first intercostal arters and branching of the coeliac stem
# The intensity of the atheromatous deposits was determined according to the following scores:
# Score 1: Discrete (<1 mm) and few deposit
# Score 2: Numerous and discrete deposits
# Score 3: Numerous and marked deposits (<1 mm)
# Score 4: Very marked deposits or very numerous deposits but letting some uninfiltrated areas
# Score 5: Deposits on the whole epithelium
# Two parameters were considered:
# the intensity of the observed damages determined according to the previously-given scores.
# [5] = test system: atheroma / hyperlipidaemia in Wistar rats on atheromatogenous regimen; test: Overall hypolipaemiant and anti-atheromatous classification (summarized scores); type: in vivo, rat; conditions: 100 mg/kg
# Description: as §1
# Female rats of Wistar strain, free of specific pathogenic germs (EOPS) stemming from the breeding EVIC-CEBA
# as §2
# Diet of the animals: the animals were given the atheromatogenous regimen then while maintaining the same regimen, they were given for 4 days 250,000 IU/kg of vitamin D2 dissolved in olive oil (Sterogyl 15H). The compounds to be tested were given thereafter for 4 weeks immediately after the termination of the atheromatogenous regimen.
smiles,measurement,setting,value
"COc1ccc(C(=O)CC2(O)C(=O)c3ccccc3C2=O)cc1OC [Compound of the invention, 2-[(3,4-dimethoxy-benzoyl)-methyl]-2-hydroxy-1,3-dioxo Indane]",Dose dependence of hypolipaemiant activity,[1]; 6 hours after TRITON WR 1339,directly proportional to the doses
same,Dose dependence of hypolipaemiant activity,[1]; 24 hours after TRITON WR 1339,inversely proportional to the dose
same,Total Score vs 250 mg/kg Procetofene,"[1]; 6 hours after, 125 mg/kg oral",2.75
same,Total cholesterol score vs 250 mg/kg Procetofene,"[1]; 6 hours after, 125 mg/kg oral",2.44
same,Triglycerids score vs 250 mg/kg Procetofene,"[1]; 6 hours after, 125 mg/kg oral",0.31
same,Cholesterol HDL/LDL score vs 250 mg/kg Procetofene,"[1]; 6 hours after, 250 mg/kg oral",0.87
same,Total Score vs 250 mg/kg Procetofene,"[1]; 6 hours after, 250 mg/kg oral",3.74
same,Total cholesterol score vs 250 mg/kg Procetofene,"[1]; 6 hours after, 250 mg/kg oral",1.15
same,Total lipids score vs 250 mg/kg Procetofene,"[1]; 6 hours after, 250 mg/kg oral",0.92
same,Triglycerids score vs 250 mg/kg Procetofene,"[1]; 6 hours after, 250 mg/kg oral",0.80
same,Cholesterol HDL/LDL score vs 250 mg/kg Procetofene,"[1]; 6 hours after, 500 mg/kg oral",2.00
same,Total Score vs 250 mg/kg Procetofene,"[1]; 6 hours after, 500 mg/kg oral",4.95
same,Total cholesterol score vs 250 mg/kg Procetofene,"[1]; 6 hours after, 500 mg/kg oral",0.35
same,Total lipids score vs 250 mg/kg Procetofene,"[1]; 6 hours after, 500 mg/kg oral",1.00
same,Triglycerids score vs 250 mg/kg Procetofene,"[1]; 6 hours after, 500 mg/kg oral",1.60
same,Total Score vs 250 mg/kg Procetofene,"[1]; 6 hours after, 750 mg/kg oral",1.72
same,Total cholesterol score vs 250 mg/kg Procetofene,"[1]; 6 hours after, 750 mg/kg oral",0.78
same,Total lipids score vs 250 mg/kg Procetofene,"[1]; 6 hours after, 750 mg/kg oral",0.14
same,Triglycerids score vs 250 mg/kg Procetofene,"[1]; 6 hours after, 750 mg/kg oral",0.80
same,Cholesterol HDL/LDL score vs 250 mg/kg Procetofene,"[1]; 24 hours after, 125 mg/kg oral",1.40
same,Total Score vs 250 mg/kg Procetofene,"[1]; 24 hours after, 125 mg/kg oral",1.94
same,Total cholesterol score vs 250 mg/kg Procetofene,"[1]; 24 hours after, 125 mg/kg oral",0.28
same,Triglycerids score vs 250 mg/kg Procetofene,"[1]; 24 hours after, 125 mg/kg oral",0.26
same,Cholesterol HDL/LDL score vs 250 mg/kg Procetofene,"[1]; 24 hours after, 250 mg/kg oral",1.10
same,Total Score vs 250 mg/kg Procetofene,"[1]; 24 hours after, 250 mg/kg oral",4.64
same,Total cholesterol score vs 250 mg/kg Procetofene,"[1]; 24 hours after, 250 mg/kg oral",1.13
same,Total lipids score vs 250 mg/kg Procetofene,"[1]; 24 hours after, 250 mg/kg oral",1.56
same,Triglycerids score vs 250 mg/kg Procetofene,"[1]; 24 hours after, 250 mg/kg oral",0.85
same,Cholesterol HDL/LDL score vs 250 mg/kg Procetofene,"[1]; 24 hours after, 500 mg/kg oral",0.80
same,Total Score vs 250 mg/kg Procetofene,"[1]; 24 hours after, 500 mg/kg oral",3.66
same,Total cholesterol score vs 250 mg/kg Procetofene,"[1]; 24 hours after, 500 mg/kg oral",0.75
same,Total lipids score vs 250 mg/kg Procetofene,"[1]; 24 hours after, 500 mg/kg oral",1.62
same,Triglycerids score vs 250 mg/kg Procetofene,"[1]; 24 hours after, 500 mg/kg oral",0.49
same,Cholesterol HDL/LDL score vs 250 mg/kg Procetofene,"[1]; 24 hours after, 750 mg/kg oral",0.40
same,Total Score vs 250 mg/kg Procetofene,"[1]; 24 hours after, 750 mg/kg oral",1.73
same,Total cholesterol score vs 250 mg/kg Procetofene,"[1]; 24 hours after, 750 mg/kg oral",0.61
same,Triglycerids score vs 250 mg/kg Procetofene,"[1]; 24 hours after, 750 mg/kg oral",0.72
same,minimal effective dose,"[1]; Rattus norvegicus, TRITON WR 1339, rats, oral, read-out: Oral dose from which hyperlipaemia was antagonized or decreased",≥ 125 mg/kg
same,"Antihyperlipaemiant activity, compound vs Procetofene",[1]; same doses (250 and 500 mg/kg),antihyperlipaemiant activity about equal
same,Symptoms after injection,[2],crawling after the injection then a protracted prostation took place with piloerection and bradypnea cyanosis
same,Mortality in 10 mice,"[2]; 2000 mg/kg, females",0
same,Mortality in 10 mice,"[2]; 2000 mg/kg, males",0
same,Mortality in 10 mice,"[2]; 2500 mg/kg, females",1
same,Mortality in 10 mice,"[2]; 2500 mg/kg, males",1
same,Mortality in 10 mice,"[2]; 3000 mg/kg, females",6
same,Mortality in 10 mice,"[2]; 3000 mg/kg, males",3
same,Late mortalities,"[2]; 3 to 4 g/kg, after 5 to 7 days",generally 1 death per dose for each sex
same,Mortality in 10 mice,"[2]; 3500 mg/kg, females",8
same,Mortality in 10 mice,"[2]; 3500 mg/kg, males",5
same,Mortality in 10 mice,"[2]; 4000 mg/kg, females",10
same,Mortality in 10 mice,"[2]; 4000 mg/kg, males",8
same,Mortality in 10 mice,"[2]; 4500 mg/kg, females",10
same,Mortality in 10 mice,"[2]; 4500 mg/kg, males",10
same,Mortality in 10 mice,"[2]; 5000 mg/kg, females",10
same,Mortality in 10 mice,"[2]; 5000 mg/kg, males",10
same,LD100 (minimal dose always lethal),[2]; female mice,4000 mg/kg
same,LDo (maximal dose always tolerated),[2]; female mice,2000 mg/kg
same,LD100 (minimal dose always lethal),[2]; male mice,4500 mg/kg
same,LDo (maximal dose always tolerated),[2]; male mice,2000 mg/kg
same,Toxicity in comparison with Clofibrate,[2]; single administration,markedly less toxic than Clofibrate
same,Dose inducing an anti-inflammatory threshold effect,[3],250 mg/kg
same,Macroscopical examination total score,[4]; 100 mg/kg,2.57
same,"Damaged animals, % of decrease in comparison with Controls-Diet","[4]; 100 mg/kg, macroscopical",-30.77%
same,"Damaged animals, percentage","[4]; 100 mg/kg, macroscopical",69.23%
same,"Damaged animals, score in relation to Clofibrate","[4]; 100 mg/kg, macroscopical",1.69
same,"Intensity of the damages, % of decrease in comparison with Controls-Diet","[4]; 100 mg/kg, macroscopical",-22.68%
same,"Intensity of the damages, score in relation to Clofibrate","[4]; 100 mg/kg, macroscopical",0.88
same,Frequency of macroscopic damages,[4]; cholesterol-rich diet,a lower frequency of macroscopic damages
same,Intensity of observed damages,[4]; cholesterol-rich diet,a lower intensity of the observed damages
same,Activity on macroscopic damages vs Clofibrate,"[4]; same doses, cholesterol-rich diet",more active when evaluating the macroscopic damages
same,Classification of the anti-atheromatous action,[5],Compound of the invention>Fenofibrate>Clofibrate
same,Hypolipaemiant and anti-atheromatous activity,[5],"marked hypolipaemiant and anti-atheromatous activity, very close to Clofibrate (100 mg/kg) and far better than those of Fenclofibrate (100 mg/kg)"
